In patent publication US7589078B2, “Anti-viral nucleoside analogs and methods for treating viral infections, especially HIV infections” (Yale University, priority 2003, dated 2009):
“Also recorded” adds a separate entry of the source. Like-named read-outs stand apart in the source and are kept apart here.

Experiments:
HIV = details: Maag et al (29), O-Yang et al (32); cited from earlier work
[1] = system: mtDNA content of CEM cells; experiment: Mitochondrial DNA content in CEM cells (Southern blot); assay type: cell-based; details: for IC50: four days, read-out: Mitochondrial DNA Content ID50
Description: Mitochondrial DNA: The effect of nucleoside analogs on mtDNA content was assessed as described previously (2). […] Cells treated with drugs at various concentrations either as single agents or in combination were grown for four days. Cells were then harvested, treated with proteinase K and DNase free RNase. Extracts were applied to nylon membranes and hybridized with an mtDNA probe. After stripping the membrane the load was normalized by rehybridizing the membrane with an Alu probe. Blots were quantitated with a Molecular Dynamics personal densitometer SI with ImageQuaNT analysis software.

CEM cells = experiment: Cellular toxicity in CEM cells (cell counts); details: for IC50: Homo sapiens, CCRF-CEM, 96 h, read-out: Cellular ID50
Description: The basic procedures are similar. The cells are seeded a low concentration, then serial dilutions of test compound are added. […] After 48 to 96 h incubation at 37° C. in a 5% CO2 humidified incubator the assay is ended. The drug treated samples are compared to the untreated controls. This is accomplished in suspension cell lines by counting cell numbers either with a hemocytometer or by using a Coulter Counter.
The numbers in parentheses represent the mean and standard deviations of percentage of untreated CEM control cells at the concentration indicated.

Acid stability study = assay type: physicochemical; details: 1N HCl, pH 1, 37° C., 2.5 h, HPLC
Description: Acid stability studies: Nucleoside samples were mixed with 1N HCl and incubated at 37° C. for 2.5 h. Then the samples were examined by HPLC using a Bechman ODS column employing a gradient of water to 80% methanol.

H-9 cells = experiment: Toxicity in H-9 cells alone and in combination (Coulter Counter); assay type: cell-based; details: for Percent of Untreated Controls: H-9 cells, 48 h
Text: (§1) The basic procedures are similar.

thymidine kinase (TK-1) [2] = target: T1, thymidine kinase (TK-1) (Homo sapiens, UniProt P04183); experiment: Thymidine kinase assay with added nucleoside ([14C]-dThd to dTMP); details: [14C]-dThd 25 μM, added nucleoside 250 μM; compared to reactions with no additions
T1 sequence (P04183 1-234): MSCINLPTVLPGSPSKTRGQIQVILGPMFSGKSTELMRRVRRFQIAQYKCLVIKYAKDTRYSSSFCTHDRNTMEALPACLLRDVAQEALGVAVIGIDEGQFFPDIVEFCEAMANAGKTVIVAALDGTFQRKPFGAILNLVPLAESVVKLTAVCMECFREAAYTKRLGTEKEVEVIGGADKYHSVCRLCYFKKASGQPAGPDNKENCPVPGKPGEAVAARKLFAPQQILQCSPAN
Description: After two additional washes in ethanol, the discs were dried and placed in scintillation vials that contained 5 ml SafeScint Scintillation Cocktail (American Bioanalytical, Natick, Mass.). The amount of radioactivity, which represents the amount of dTMP formed, was quantitated in a Beckman LS5000TD Scintillation Counter (Beckman Instruments Inc., Palo Alto, Calif.).

thymidine kinase (TK-1) [3] = target: T1, thymidine kinase (TK-1); experiment: Monophosphorylation of analogs by thymidine kinase; assay type: biochemical; set-up: phosphorylated by thymidine kinase (TK-1) from CEM cells; endogenous in cells; details: for Relative Vmax: 250 μM dThd or analog, 2.4 mM ATP, 0.07 unit TK-1, 37° C., 285 min, dThd = 100
Description: Monophosphorylation of Analogs by Thymidine Kinase: All the analogs were tested for their ability to be phosphorylated by thymidine kinase (TK-1) from CEM cells. This enzyme was purified by an affinity column technique developed in this laboratory (7). […] At the end of the incubation time the reaction was stopped by the addition of 3 parts cold HPLC grade methanol. After incubating on ice for at least 10 min. the methanol insoluble material is precipitated by centrifugation and the methanol soluble supernatants were placed into clean microfuge tubes. These samples were brought to dryness in a Speedvac Centrifuge. The samples were dissolved in water and separated on a Shimatzu HPLC model SCL 10Avp using a gradient of water to 300 mM potassium phosphate and a Whatman 10/25 particle SAX column. Km and relative Vmax studies were done in a similar fashion, using the same mixture and different amounts of substrate and enzyme.

MT-2 cells = experiment: Cellular toxicity, MT-2 cell growth; assay type: cell-based; details: for IC50: Homo sapiens, MT2, MT-2 cells, read-out: ID50: concentration required to inhibit MT-2 cell growth by 50%
Text: as §1

HIV-1 strain IIIB [4] = details: MT-2 cells; EC50 reported previously (17); read-out: EC50: effective concentration required to achieve 50% protection from HIV in MT-2 cells; cited from earlier work
HIV-1 strain IIIB [5] = experiment: Antiviral activity in MT-2 cells infected with HIV-1 strain IIIB (MTT); assay type: cell-based
Description: Determination of antiviral activity: Compounds were tested in MT-2 cells infected with HIV-1 strain IIIB essentially as described previously (31). […]. Calculations of the percent protection and isobologram combination studies are described (12).

[6] = target: T2, thymidine phosphorylase (TP) (Homo sapiens, UniProt P19971); experiment: Thymidine phosphorylase assay; assay type: in vitro ADME; details: partially purified TP from human liver
T2 construct: using a partially purified prepartion of human liver extract (28) as a source of the thymidine phosphorylase (TP); from tissue; host or cells: human liver extract, partially purified
T2 sequence (P19971 11-482): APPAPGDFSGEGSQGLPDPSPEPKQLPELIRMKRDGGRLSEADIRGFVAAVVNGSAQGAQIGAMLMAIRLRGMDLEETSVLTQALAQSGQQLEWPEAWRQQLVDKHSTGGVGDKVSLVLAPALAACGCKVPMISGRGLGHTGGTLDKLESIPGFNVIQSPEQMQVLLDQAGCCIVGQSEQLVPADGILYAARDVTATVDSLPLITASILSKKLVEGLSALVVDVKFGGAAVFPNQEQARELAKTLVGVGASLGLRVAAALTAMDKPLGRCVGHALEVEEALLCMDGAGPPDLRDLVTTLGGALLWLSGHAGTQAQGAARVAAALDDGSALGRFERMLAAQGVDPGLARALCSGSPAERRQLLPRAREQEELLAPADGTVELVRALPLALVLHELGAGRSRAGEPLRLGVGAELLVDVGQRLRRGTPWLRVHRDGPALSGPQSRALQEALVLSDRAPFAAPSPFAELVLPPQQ
Description: Thymidine Phosphorylase Assays: Nucleoside analogs (100 μM) were incubated in 75 mM potassium phosphate buffer pH 7.3 at 37° C. using a partially purified prepartion of human liver extract (28) as a source of the thymidine phosphorylase (TP). After incubation, the reaction was stopped by the addition of trichloroacetic acid to a final concentration of 15%. The samples were then incubated on ice. After the acid insoluble components were removed by centrifugation, the supernatant was neutralized by two extractions with one half volume of trioctylamine/freon (45:55). The aqueous supernatants were examined by HPLC using the Beckman ODS column method, as described in Acid Stability Studies.

[7] = system: CEM cellular extract supplemented with partially purified TK-1 and recombinant human dTMP kinase; experiment: Phosphorylation to triphosphate in CEM cellular extract with TK-1 and dTMP kinase; assay type: biochemical; details: unpublished results
[8] = substrate: C#C[C@@]1(CO)C=C[C@H](n2cc(C)c(=O)[nH]c2=O)O1; experiment: Monophosphorylation of analogs by thymidine kinase; assay type: biochemical; details: other: phosphorylation by human cytoplasmic thymidine kinase; pH 7.5
Description: Monophosphorylation of Analogs by Thymidine Kinase: All the analogs were tested for their ability to be phosphorylated by thymidine kinase (TK-1) from CEM cells. […] At the end of the incubation time the reaction was stopped by the addition of 3 parts cold HPLC grade methanol. After incubating on ice for at least 10 min. the methanol insoluble material is precipitated by centrifugation and the methanol soluble supernatants were placed into clean microfuge tubes. These samples were brought to dryness in a Speedvac Centrifuge. The samples were dissolved in water and separated on a Shimatzu HPLC model SCL 10Avp using a gradient of water to 300 mM potassium phosphate and a Whatman 10/25 particle SAX column. Km and relative Vmax studies were done in a similar fashion, using the same mixture and different amounts of substrate and enzyme.

[9] = substrate: Cc1cn([C@H]2C=C[C@@H](CO)O2)c(=O)[nH]c1=O; experiment: purified protein, by the assay type; details: other: phosphorylation by human cytoplasmic thymidine kinase; pH 7.5; 37.0 °C

For `Cc1cn([C@H]2C=C[C@](CO)(N=[N+]=[N-])O2)c(=O)[nH]c1=O` [4′-azido D4T], the “Anti-HIV activity as described by others” value (HIV) is listed as “inactive against HIV at non-toxic levels”.

With `C#C[C@@]1(CO)C=C[C@H](n2cc(C)c(=O)[nH]c2=O)O1` [4′-ethynyl D4T, 2′,3′-didehydro-3′-deoxy-4′-ethynylthymidine] the IC50 ([1]; Homo sapiens, CCRF-CEM, 96 h) was over 100 µM, the “Mitochondrial DNA content, percentage of untreated CEM control cells” value ([1]; at 100 μM) was 94 ± 4% and the IC50 [1] was 100 µM. The “Cell count, percentage of untreated CEM control cells” value (CEM cells; CEM cells, at 100 μM) was 77 ± 16%, the IC50 (CEM cells) was over 100 µM and the “Stability at pH 1” value (Acid stability study) was “No detectable breakdown”. For the same molecule, the “Toxic interaction on cell growth in combination with 3TC and LFd4C” value (H-9 cells; H9 cells, 48 h assay) was “no significant increase in toxic interactions”, the “Percent of Untreated Controls” value (H-9 cells; 25 μM 4′-ethynyl D4T plus 5 μM 3TC) was 98 ± 2% and the “Percent of Untreated Controls” value (H-9 cells; 25 μM 4′-ethynyl D4T plus 5 μM LFd4C) was 62 ± 3%. For the same molecule, the “Percent of Untreated Controls” value (H-9 cells; 25 μM 4′-ethynyl D4T plus 10 μM LFd4C) was 58 ± 4%, the “Percent of Untreated Controls” value (H-9 cells; 25 μM 4′-ethynyl D4T plus 20 μM 3TC) was 88 ± 3% and the “Percent of Untreated Controls” value (H-9 cells; 25 μM 4′-ethynyl D4T plus 100 μM 3TC) was 85 ± 3%. For the same molecule, the “Percent of Untreated Controls” value (H-9 cells; 25 μM 4′-ethynyl D4T, no additive) was 97 ± 7%, the “Percent of Untreated Controls” value (H-9 cells; 50 μM 4′-ethynyl D4T plus 5 μM 3TC) was 99 ± 10% and the “Percent of Untreated Controls” value (H-9 cells; 50 μM 4′-ethynyl D4T plus 5 μM LFd4C) was 72 ± 5%. The “Percent of Untreated Controls” value (H-9 cells; 50 μM 4′-ethynyl D4T plus 10 μM LFd4C) was 64 ± 5%, the “Percent of Untreated Controls” value (H-9 cells; 50 μM 4′-ethynyl D4T plus 20 μM 3TC) was 87 ± 6% and the “Percent of Untreated Controls” value (H-9 cells; 50 μM 4′-ethynyl D4T plus 100 μM 3TC) was 84 ± 6%. For the same molecule, the “Percent of Untreated Controls” value (H-9 cells; 50 μM 4′-ethynyl D4T, no additive) was 102 ± 6%, the “Percent of Activity” value (thymidine kinase (TK-1) [2]) was 83.9 ± 6.1% and the “Relative Vmax” value (thymidine kinase (TK-1) [3]) was 3.8 ± 0.8. The “Rate of phosphorylation by TK-1, in words” value (thymidine kinase (TK-1) [3]; purified human TK-1) was “superior to D4T; also recorded: twice as fast as D4T”, the IC50 (MT-2 cells) was over 256 µM and the “Toxicity compared with D4T” value (MT-2 cells; MT-2/IIIB system) was “less toxic than the parental compound D4T”. The EC50 (HIV-1 strain IIIB [4]) was 0.25 ± 0.14 µM, the EC50 (HIV-1 strain IIIB [5]; Human immunodeficiency virus 1, MT2, MT-2/HIV IIIB system, FIG. 10, read-out: EC50 for single agents (isobologram study)) was 0.5 µM and the “Anti-HIV activity compared with D4T” value (HIV-1 strain IIIB [5]; MT-2/IIIB anti HIV-1 system, FIG. 8) was “more effective against HIV”. For the same molecule, the “Effect of addition of dCyd on the antiviral activity” value (HIV-1 strain IIIB [5]; dCyd 10 μM in the presence of THU 5 μM, FIG. 9) was “no significant effect”, the “Effect of addition of dThd on the antiviral activity” value (HIV-1 strain IIIB [5]; dThd 10 μM and 1 μM added to standard antiviral assay, FIG. 9) was “decreased the antiviral effect” and the “Antiviral interaction in combination (isobologram)” value (HIV-1 strain IIIB [5]; in combination with 3TC) was “synergistic”. The “Antiviral interaction in combination (isobologram)” value (HIV-1 strain IIIB [5]; in combination with AZT (data not shown)) was “only additive”, the “Antiviral interaction in combination (isobologram)” value (HIV-1 strain IIIB [5]; in combination with LFd4C) was “synergistic” and the “Antiviral interaction in combination (isobologram)” value (HIV-1 strain IIIB [5]; in combination with ddI (data not shown)) was “only additive”. For the same molecule, the “Break down by thymidine phosphorylase” value ([6]; 100 μM nucleoside, 37° C., FIG. 11) was “below the detection level”.

With `Cc1cn([C@H]2C=C[C@@H](CO)O2)c(=O)[nH]c1=O` [D4T, 2′,3′-Didehydro-3′-deoxythymidine, reference compound] the IC50 ([1]; Homo sapiens, CCRF-CEM, 96 h) was 9.3 ± 1.4 µM, the IC50 (CEM cells) was 60 ± 18 µM and the “Stability at pH 1” value (Acid stability study) was “No detectable breakdown”. The “Percent of Activity” value (thymidine kinase (TK-1) [2]) was 106.3 ± 7.7%, the “Relative Vmax” value (thymidine kinase (TK-1) [3]) was 2.1 ± 0.7 and the “Rate of conversion to the monophosphate form” value (thymidine kinase (TK-1) [3]; purified human TK-1) was “approximately 2% of dThd”. For the same molecule, the “Phosphorylation to the triphosphate metabolite” value [7] was “more efficiently phosphorylated to the triphosphate metabolite than 4′-ethynyl D4T”, the IC50 (MT-2 cells) was 98 ± 10.8 µM and the EC50 (HIV-1 strain IIIB [5]; Human immunodeficiency virus 1, IIIB, MT2, read-out: EC50: effective concentration required to achieve 50% protection from HIV in MT-2 cells) was 1.3 ± 0.4 µM. For the same molecule, the EC50 (HIV-1 strain IIIB [5]; Human immunodeficiency virus 1, IIIB, MT2, read-out: EC50 for single agents (isobologram study)) was 1.4 µM and the “Break down by thymidine phosphorylase, times slower than dThd” value [6] was “at least 10 times”.

B1: thymidine kinase (TK-1) (Homo sapiens) (protein)
chain: MSCINLPTVLPGSPSKTRGQIQVILGPMFSGKSTELMRRVRRFQIAQYKCLVIKYAKDTRYSSSFCTHDRNTMEALPACLLRDVAQEALGVAVIGIDEGQFFPDIVEFCEAMANAGKTVIVAALDGTFQRKPFGAILNLVPLAESVVKLTAVCMECFREAAYTKRLGTEKEVEVIGGADKYHSVCRLCYFKKASGQPAGPDNKENCPVPGKPGEAVAARKLFAPQQILQCSPAN
notes: phosphorylated by thymidine kinase (TK-1) from CEM cells; endogenous in cells
B1 showed a Km [8] of 52 µM and a Km [9] of 133 µM.
